Literature values in doi:10.1101/2025.05.13.653654v1, “PEPlife2: A Updated Repository of the Half-life of Peptides” (bioRxiv, 2025).

Excerpt: Our database includes various chemical modifications aimed at enhancing the stability of peptides or proteins, such as PEGylation, Fc-conjugation, amino acid replacements (e.g., Lys substitutions followed by fatty acid conjugation), D-amino acid substitutions, non-natural amino acid substitutions (e.g., Aib, Sar, pGlu), cyclization, amidation, acetylation, and others.

| Substance | Half life | half-life (approximate values, effect of N-terminal acetylation and C-terminal amidation, matrix not given, curated database entry, ref not given) |
| --- | --- | --- |
| cMPRLRGC [VH445] | 3.03 h |  |
| CMPRLRGC [VH434] | 1.16 h |  |
| DRVYIHP [Ang(1-7)] |  | approximately 9 minutes |
